The results in this text go back to EP2093222A1, “Polyisoprenoid epoxides useful for decreasing cholesterol and/or increasing coenzyme Q biosynthesis” (NEWBIOTECHNIC, S.A., priority 2008, dated 2009).

For test [1], the system named is HepG2 cells. Briefly: Biosynthesis of cholesterol and CoQ by HepG2 cells: incorporation of [3H]mevalonate, lipid extraction, HPLC with on-line detection of radioactivity. Format: cell-based, human. To be noted: for Coenzyme Q10: labeling of CoQ. The procedure: (§1) Human hepatoblastoma (HepG2) cells (cell line derived from a human liver cancer that contains primarily CoQ with a decaprenyl side-chain available in ATCC (Cat. No. HB-8065), obtained from LGC Prochem, UK) were cultured in 10 ml DMEM medium (Invitrogen) containing 1 g glucose per 100 ml, 10% fetal bovine serum, penicillin (100 units per ml) and streptomycin ([…]). When 70% confluency was reached, the medium was changed and the compounds to be investigated added in 50-100 µl dimethylsulfoxide to give a final concentration of 2 µM or in the case of tocotrienols 5 µM. Twenty-four hours later, 0.5 mCi [^3H]mevalonate (3.25 Ci/mmol) was added and incubation continued for an additional 8 hours. When the substrate was [^3H]lanosterol (0.28 Ci/mmol) the amount added was 5 µCi. Finally, the cells were harvested by trypsinisation and stored at -20° C for later analysis.
(§2) Lipids were extracted from cells with chloroform:methanol:water (1:1:0.3), at 37°C for 1 hr with magnetic stirring (Ericsson, J., Runquist, M., Thelin, A., Andersson, M., Chojnacki, T., and Dallner, G. (1993) J Biol Chem 268(2), 832-838). The extracts thus obtained were adjusted to achieve a final chloroform:methanol:water ratio of 3:2:1 and complete phase separation then accomplished by centrifugation. The lower chloroform phase was removed and evaporated to dryness under a flow of nitrogen and the residue subsequently re-dissolved in chloroform. These solutions were placed onto a silica column (50 mg/1.5 ml; Extract-Clean, Alltech, Deerfield, IL) and thereafter eluted with 6 ml chloroform. After evaporation of the solvents, the neutral lipids were dissolved in chloroform:methanol (2:1).
(§3) For analysis of cholesterol, cholesterol metabolites, squalene, and CoQ, the samples were subjected to reversed-phase HPLC using a Supelcosil LC-18 column (3 µm, 4.0 x 75 mm) equipped with an LC-18 Supelguard (Supelco) column (Ericsson, J., Thelin, A., Chojnacki, T., and Dallner, G. (1992) J Biol Chem 267(27), 19730-19735). For separation, a stepwise gradient involving methanol:water (9:1) in pump system A and methanol:2-propanol:hexane (2:1:1) in pump system B was employed at a flow rate of 1.1 ml/min. The gradient began at 15% solvent B, with increases to 47% after 8 min, 67% after 16 min and 100% after 24 min. The lipids in the eluent were monitored at 210 nm and 275 nm with a UV detector and labeling of radioactive products was measured with on-line detector of radioactivity. Ergosterol and CoQ6 were used as internal standards.

Test [2] has as its system HepG2 cells. Briefly: Biosynthesis of cholesterol from [3H]lanosterol in the presence of inhibitors. Type of test: cell-based, human. The note with it: for Cholesterol: 2 µM tetraepoxysolanesol or ketoconazole or 0.2 µM RO 48-8071, 24 hrs, then [3H]lanosterol 8 hrs, means ± SE of 3 experiments; for cholesterol synthesis with [3H]lanosterol as precursor: result in words. The procedure:
as §1, §2, §3

The subject of test [3] is HepG2 cells. Briefly: Biosynthesis of cholesterol and CoQ by HepG2 cells: incorporation of [3H]mevalonate, lipid extraction, HPLC with on-line detection of radioactivity. To be noted: Homo sapiens, [3H]mevalonate incorporation into cholesterol, read-out: inhibition (reduction) of cholesterol synthesis. Type of test: cell-based.
Setting [4] is: 2 µM, 24 hours, then [3H]mevalonate for 8 hours, means ± SD (n = 4).
[5] abbreviates: 2 µM, 24 hours, then [3H]mevalonate for 8 hours, labeling of cholesterol, means ± SD (n = 4).
The mark [6] stands for this setting: 2 µM tetraepoxysolanesol or ketoconazole or 0.2 µM RO 48-8071, 24 hrs, then [3H]mevalonate 8 hrs, means ± SE.
Setting [7] is: 2 µM tetraepoxysolanesol or ketoconazole or 0.2 µM RO 48-8071, 24 hrs, then [3H]mevalonate 8 hrs, means ± SE, n.d. = not detectable.

`CC(C)=CCC/C(C)=C/CC/C(C)=C/CO` [Farnesol]: the “Coenzyme Q10” value in the test with HepG2 cells [1] (setting [4]) is on record as 100 ± 4 % of control. Further, the Cholesterol in the test with HepG2 cells [1] (setting [5]) was 101 ± 3 % of control.

`CC(C)=CCC/C(C)=C/CC/C(C)=C/CC/C(C)=C/CO` [Geranylgeraniol]: the “Coenzyme Q10” value with HepG2 cells [1] (setting [4]) is recorded as 107 ± 11 % of control. Also, the Cholesterol in the test with HepG2 cells [1] (setting [5]) is listed as 102 ± 5 % of control.

Regarding `CC(=O)OC/C=C(\C)CC/C=C(\C)CC/C=C(\C)CCC=C(C)C` [Geranylgeranyl-acetate], the “Coenzyme Q10” value in the test with HepG2 cells [1] (setting [4]) was 109 ± 12 % of control. In addition, in the test with HepG2 cells [1] (setting [5]), the Cholesterol is given as 102 ± 4 % of control.

Consider `CC(=O)N1CCN(c2ccc(OCC3COC(Cn4ccnc4)(c4ccc(Cl)cc4Cl)O3)cc2)CC1` (centres unmarked) [Ketoconazole, reference compound], for which the CQ10 in the test on HepG2 cells [1] (setting [6]) is listed as 2.4 ± 0.3 cpm/pg protein. Further, in the test with HepG2 cells [1] (setting [7]), the Cholesterol is given as 25 ± 4 cpm/pg protein and the Lanosterol came to 58 ± 16 cpm/pg protein. Further, in the test with HepG2 cells [2], the Cholesterol is 1.3 ± 0.3 cpm/pg protein and the “cholesterol synthesis with [3H]lanosterol as precursor” value was “inhibited”.

Turning to `C=CCN(C)CCCCCCOc1ccc(C(=O)c2ccc(Br)cc2)c(F)c1` [RO 48-8071, reference compound], in the test on HepG2 cells [1] (setting [6]), the CQ10 amounted to 2.1 ± 0.2 cpm/pg protein. In addition, in the test with HepG2 cells [1] (setting [7]), the “2,3-Oxido squalene” value came out at 91 ± 10 cpm/pg protein and the “2,3:22,23-Dioxidosqualene” value worked out at 108 ± 22 cpm/pg protein. Besides, in the test with HepG2 cells [2], the Cholesterol is listed as 10.1 ± 1.2 cpm/pg protein and the “cholesterol synthesis with [3H]lanosterol as precursor” value was “neither tetraepoxysolanesol or RO 48-8071 inhibited”.

As to `CC(C)=CCC/C(C)=C/CC/C(C)=C/CC/C=C(\C)CC/C=C(\C)CCC=C(C)C` [Squalene], in the test on HepG2 cells [1] (setting [4]), the “Coenzyme Q10” value was 111 ± 8 % of control. The Cholesterol with HepG2 cells [1] (setting [5]) is on record as 30 ± 5 % of control. Besides, the inhibition at 2 µM in the test with HepG2 cells [3] worked out at 70%.

With Farnesyl-acetate, the “Coenzyme Q10” value with HepG2 cells [1] (setting [4]) is 105 ± 8 % of control. In addition, in the test on HepG2 cells [1] (setting [5]), the Cholesterol is 103 ± 4 % of control.

In the case of Solanesol, the “Coenzyme Q10” value with HepG2 cells [1] (setting [4]) is recorded as 138 ± 14 % of control. Besides, in the test with HepG2 cells [1] (setting [5]), the Cholesterol is given as 3 ± 1 % of control.

With Solanesyl-acetate, in the test with HepG2 cells [1] (setting [4]), the “Coenzyme Q10” value was 145 ± 18 % of control. Further, in the test with HepG2 cells [1] (setting [5]), the Cholesterol was 4 ± 2 % of control.

Vitamin K2: in the test on HepG2 cells [1] (setting [4]), the “Coenzyme Q10” value is reported as 127 ± 18 % of control. Also, in the test on HepG2 cells [1] (setting [5]), the Cholesterol is 67 ± 7 % of control. In addition, the “inhibition (reduction) of cholesterol synthesis” value in the test with HepG2 cells [1] (2 µM, [3H]mevalonate incorporation into cholesterol) turned out to be 33%. For the same compound, the “elevation (stimulation) of CoQ synthesis” value in the test on HepG2 cells [1] (2 µM, [3H]mevalonate labeling of CoQ) was 27%.

What is called inhibition is how much of the control response was suppressed.
